The values below come from patent US9079870B2, “Thiol mediated/activated prodrugs of sulfur dioxide (SO2) having anti-bacterial activity” (priority 2012, dated 2015).

For data set [1] the following is noted: Table 4; values are for the amine without a DNs group; cited from earlier work.
The conditions of data set [2]: 100 µM, pH 7.4.
For data set [3], the system named is human embryonic kidney 293 cells (HEK). Kind of data set: Cell viability assay.
In another data set the test system is S. aureus ATCC 29213. Nature of the data set: Antibacterial activity (MIC) against S. aureus. Type of data set: cell-based. The conditions noted are these: Staphylococcus aureus, ATCC29213; read-out: MIC (μg/mL) S. aureus ATCC 29213. From the text: (§1) The antibacterial activity of thiol mediated/activated prodrugs of SO2 i.e. 2,4-dinitrophenylsulfonamide related compounds against the gram positive pathogenic bacteria selected from the group S. aureus, E. feacalis is given herein below Table 2a.

Data set [4] in a line: Pararosaniline-based colorimetric assay for sulfur dioxide. Type of data set: physicochemical. The following applies: detected with pararosaniline-based colorimetric assay; 10 equiv cysteine, pH 7.4.
For data set [5], the system named is Mycobacterium tuberculosis H37Rv strain. Nature of the data set: Antimycobacterial activity assay (MIC, 7H11 agar). The following applies: Mycobacterium tuberculosis, H37RV, Mtb H37Rv. Type of data set: cell-based.
Data set [6] is described as follows: Cysteine-activated sulfur dioxide release, ion chromatography analysis of sulfite. The conditions noted are these: for SO2 yield, 5 min: 5 min after treatment of compound (100 1M) with 10 equiv of cysteine in pH 7.4 phosphate buffer; for Max SO2 yield: sum of sulfite and sulfate, compound 100 μM, cysteine 10 equiv.
For the next data set, the system named is E. feacalis ATCC 29212. Nature of the data set: Antibacterial activity (MIC) against E. feacalis. Type of data set: cell-based. The conditions noted are these: Enterococcus faecalis, ATCC29212; read-out: MIC (μg/mL) E. feacalis ATCC 29212.
Source text: as §1

The nature of data set [7]: Kinetics of thiol-mediated decomposition of compound (7), HPLC and ion chromatography. Type of data set: physicochemical. The following applies: curve fitting, FIG. 3. As to the method: FIG. 3 depicts kinetics of decomposition of compound (7) to produce sulfur dioxide and 2-hydroxyethylthio-2,4-dinitrobenzene (7y), where disappearance of compound (7) and appearance of (7y) was followed by HPLC analysis. Production of sulfite was monitored by ion chromatography analysis. Curve fitting afforded first order rate constant for: appearance of (7y) as 0.011 min^−1; and appearance of sulfite as 0.014 min^−1.
Alternatively, a detailed kinetic analysis of thiol-mediated decomposition and sulfite generation from compound (7) is represented in FIG. 1b, wherein compound (7) decomposed to simultaneously produce sulfur dioxide, and by-products like 4-methoxyaniline (7x) and 2-hydroxyethylthio-2,4-dinitrobenzene (7y). Further the rate determining step in the said mechanism was the step of protonation (either through proton transfer or addition of proton).

Where [8] appears, read: 672 h, Table 3, inhibit 99% of bacterial growth.
Where [9] appears, read: Table 2b, inhibit 99% of bacterial growth.
Setting [10] is: Table 3, inhibit 99% of bacterial growth.
Where [11] appears, read: 30 min after treatment of compound (100 1M) with 10 equiv of cysteine in pH 7.4 phosphate buffer.
Where [12] appears, read: Table 3, 30 min after treatment of compound (100 μM) with 10 equiv of cysteine in pH 7.4 phosphate buffer.

Each structure is given as a SMILES string. ≈ marks a conversion by molar mass, not a printed value. Where “and” joins values, the source holds several entries; their conditions need not be identical. Identical values can stand only once. Like-named read-outs stand apart in the source and are kept apart here.

One may read the IC50 as the concentration at which inhibition is half-maximal. For `O=[N+]([O-])c1ccc(S(=O)(=O)NCc2ccccc2)c([N+](=O)[O-])c1` [Compound 1, N-benzyl-2,4-dinitrophenylsulfonamide], the pKaH in data set [1] is reported as 9.34. Further, the “t1/2 (min) of SO2 generation” value in data set [2] was roughly 2 min; in data set [2] (buffer), roughly 2 g·min. In addition, the IC50 in data set [3] (Homo sapiens, HEK293, read-out: IC50, cell viability) is 7 µM. Also, the “selectivity (SI) toward Mtb over human embryonic kidney cells” value in [3] (based on the MIC and IC50) was ~50 and 47. For the same compound, the MIC is greater than 16 µg/mL in the data set on S. aureus ATCC 29213; no more than 25 µg/mL in [5] (setting [8]); 0.15 µM in data set [5] (Table 2b); roughly 0.05 µg/mL in [5] (setting [9]); 0.15 µM in data set [5] (Table 3); 0.05 µg/mL in data set [5] (setting [10]). In the data set with E. feacalis ATCC 29212, the MIC is greater than 16 µg/mL. The SO2 source entry in [4] was “yes”. Moreover, the “SO2 yield, 5 min” value in data set [6] was determined as 83 µM. The “SO2 yield in 30 min (%)” value in data set [6] (30 min after commencement of the reaction with cysteine (10 equiv), pH 7.4) is recorded as roughly 100%. The “SO2 yield, 30 min” value in [6] (setting [11]) and in [6] (setting [12]) was 100 µM in each case. In addition, in [6] (pH 7.4), the “Max SO2 yield” value came out at 100 µM.
For the compound `COc1ccc(NS(=O)(=O)c2ccc([N+](=O)[O-])cc2[N+](=O)[O-])cc1` [Compound 7, N-(4-methoxyphenyl) 2,4-dinitrophenylsulfonamide], the pKaH in [1] is reported as 5.29. Further, in [7] (HPLC analysis), the “first order rate constant for appearance of (7y)” value turned out to be 0.011 min⁻¹. In data set [7] (ion chromatography analysis), the “first order rate constant for appearance of sulfite” value was 0.014 min⁻¹. The “t1/2 (min) of SO2 generation” value in [2] (buffer) stood at 12 min. Further, the MIC in the data set on S. aureus ATCC 29213 was greater than 16 µg/mL; in data set [5] (setting [8]), no more than 25 µg/mL; in [5] (Table 2b), 4.4 µM; in data set [5] (setting [9]), 1.56 µg/mL; in [5] (Table 3) it was 4.4 µM; in data set [5] (setting [10]), 1.56 µg/mL. In the data set on E. feacalis ATCC 29212, the MIC is greater than 16 µg/mL. Also, in [4], the SO2 source result was “yes”. Also, the “SO2 yield, 5 min” value in [6] was 39 µM. Moreover, the “SO2 yield, 30 min” value was found to be 80 µM in data set [6] (setting [11]) and 79.5 µM in data set [6] (setting [12]). The “K (min−1), rate of sulfite release” value in [6] (compound (100 μM), cysteine (10 equiv), pH 7.4 phosphate buffer (20 mM)) was 0.0575 min⁻¹. The “Max SO2 yield” value in data set [6] (pH 7.4) is 97 µM.
For the compound `CN(Cc1ccccc1)S(=O)(=O)c1ccc([N+](=O)[O-])cc1[N+](=O)[O-]` [Compound 15, (N-benzyl, N-methyl) 2,4-dinitrophenylsulfonamide], the pKaH in data set [1] is reported as 9.58. The “t1/2 (min) of SO2 generation” value was 4 min in data set [2] and roughly 4 g·min in data set [2] (buffer). Moreover, the MIC is 8 µg/mL (≈ 22.8 µM) in the data set on S. aureus ATCC 29213; no more than 25 µg/mL in data set [5] (setting [8]); 1.1 µM in data set [5] (Table 2b); 0.4 µg/mL in data set [5] (setting [9]); 1.1 µM in data set [5] (Table 3); 0.4 µg/mL in [5] (setting [10]). In addition, the MIC in data set [5] (text to Table 2b) is less than 1000 µg/mL; in the data set on E. feacalis ATCC 29212, greater than 16 µg/mL. Besides, in [4], the SO2 source result is recorded as “yes”. For the same compound, in [6], the “SO2 yield, 5 min” value was 79 µM. For the same compound, the “SO2 yield, 30 min” value in data set [6] (setting [11]) and in [6] (setting [12]) was 100 µM each time. Also, in data set [6] (pH 7.4), the “Max SO2 yield” value worked out at 100 µM.
